Type in all cases: physicochemical
Series [1] can be described thus: Solubility in water of the dyestuff. How it is done:
(5) The wet cake obtained in above (4)was added in 1500 parts of methanol, followed by heating at 60-65° C. and stirring for 1 hr. The crystal was filtered to separate, washed with methanol and dried to obtain 42.0 parts of the compound of No.2 as a red crystal. λmax:523 nm (in water, the ammonium salt); solubility in water:100 g/l or above.
(2) The wet cake obtained in this (1) was desalted as in Example 1(5) to obtain 35.0 parts of the compound of No.5 as a red crystal. λmax:522 nm (in water, the ammonium salt); solubility in water:100 g/l or more.
(2) To the reaction solution of the above (1) was added 4.7 parts of the compound of Formula (5) (R1=CH3, R2=H) obtained as in Example 1 (1) and 1(2), followed by raising the temperature and dropping 10% aqueous sodium hydroxide at 60-65° C. to maintain the pH at 4-5 for 1 hr for the reaction. The solution was maintained for 1 hr at pH 6.5-7.0, and filtered to remove a little insoluble matter, to obtain the reaction solution containing the compound of No.15. The reaction solution was diluted with water to obtain 250 parts of the diluted solution, followed by heating at 60-65° C., adding 50 parts of sodium chloride and stirring for about 30 min to deposit crystal. After stirring for 1 hr, the crystal was filtered to separate, washed with 100 parts of 10% aqueous sodium chloride, and dried to obtain 8.9 parts of the sodium salt of the compound of No.15 as a red crystal. λmax:527 nm (in water); solubility in water:100 g/l or more.
The anthrapyridone dyestuff of the present invention is suitable for an ink-jet magenta dyestuff because it has values in hue and brightness close to those of the JNC standard magenta. The dyestuff of the present invention also, when used on a special paper, can provide good light fastness and water fastness. […] Further, the dyestuffs of No.2, No.5 and No.15 obtained in Example 1 to 3 have their water-solubilities of 100 g/l or more under an alkaline condition (pH 8-9) and therefore enable to prepare stable inks for ink-jetting. […]

Series [2] in a line: Light fastness test of recorded image, carbon arc fade meter, 20 hours. As to conditions: carbon arc 20 hours; for Light fastness Grade: JIS L-0841 blue scale. From the text: (§1) Each water-based ink composition was produced by preparing the liquids which contain the anthrapyridone compounds (dyestuff components) of No.2, No.5 and No.15 respectively and have a composition of Table 2 as shown below, and then filtering through 0.45 μm membrane filter.
(§2) By using an ink-jet printer (Trade name: PICTY80L, made by NEC KK), ink-jet recordings were done on four types of recording sheets: a plain paper (Printer paper A4, TLB5A4S made by Canon KK), a special paper A (Color BJ Paper LC101 made by Canon KK), a special paper B (Coated paper for color image jetting, STX73A4 made by Sharp KK), and a glossy film (Special glossy film, MJA4SP6 made by Seiko-Epson KK).
A carbon arc fade meter (by Suga Testing Machine Co.) was used to irradiate carbon arc on the recorded images for 20 hours. Grade was judged according to JIS L-0841 blue scale. A color difference (ΔE) between before and after the test was measured by the above color determination system.

The nature of series [3]: Water fastness test of recorded paper, dipped into water, stirred for 2 min, air-dried. As to conditions: water 2 min; for Water fastness Grade: JIS color fading grey scale.
Description: as §1, §2
A recorded paper was dipped into water in a beaker, stirred for 2 min, and air-dried. The change between before and after the test was judged by the JIS color fading grey scale. Alternatively, a color difference (ΔE) between before and after the test was measured by the above color determination system.

[4] abbreviates: Plain Paper (PP), color difference before/after.

Molecules are shown by their SMILES.

On to `Cn1c(=O)cc2c3c(c(Nc4cc(Nc5nc(NCCS(=O)(=O)O)nc(Nc6cc(C(=O)O)cc(C(=O)O)c6)n5)ccc4S(=O)(=O)O)ccc31)C(=O)c1ccccc1-2` [No.2], for which the solubility in water in series [1] is no less than 100 g/L. The “Light fastness (ΔE)” value in series [2] (Glossy Film (GF)) is reported as “(3.6)”; in series [2] (setting [4]), “(3.7)”; in series [2] (Special Paper A (SA)) it was “(11.1)”; in series [2] (Special Paper B (SB)) it was “(7.2)”. The “Light fastness Grade” value is on record as 4 in series [2] (Glossy Film (GF)), 4 in series [2] (Plain Paper (PP)), 3 in series [2] (Special Paper A (SA)) and 3-4 in series [2] (Special Paper B (SB)). The “Water fastness (ΔE)” value in series [3] (Glossy Film (GF)) is recorded as “(3.5)”; in series [3] (setting [4]) it was “(8.6)”; in series [3] (Special Paper A (SA)) it was “(2.2)”; in series [3] (Special Paper B (SB)), “(5.5)”. For the same compound, the “Water fastness Grade” value in series [3] (Glossy Film (GF)) is reported as 4; in series [3] (Plain Paper (PP)) it was 3-4; in series [3] (Special Paper A (SA)), 4; in series [3] (Special Paper B (SB)), 3-4.

`Cn1c(=O)cc2c3c(c(Nc4cc(Nc5nc(NCC(=O)O)nc(Nc6cc(C(=O)O)cc(C(=O)O)c6)n5)ccc4S(=O)(=O)O)ccc31)C(=O)c1ccccc1-2` [No.5] registered a solubility in water in series [1] of no less than 100 g/L. Further, the “Light fastness (ΔE)” value in series [2] (Glossy Film (GF)) was “(10.6)”; in series [2] (setting [4]) it was “(8.7)”; in series [2] (Special Paper A (SA)), “(14.1)”; in series [2] (Special Paper B (SB)), “(12.4)”. The “Light fastness Grade” value is reported as 3-4 in series [2] (Glossy Film (GF)), 3-4 in series [2] (Plain Paper (PP)), 3 in series [2] (Special Paper A (SA)) and 3 in series [2] (Special Paper B (SB)). Further, the “Water fastness (ΔE)” value in series [3] (Glossy Film (GF)) is on record as “(4.6)”; in series [3] (setting [4]), “(6.3)”; in series [3] (Special Paper A (SA)), “(2.4)”; in series [3] (Special Paper B (SB)) it was “(4.5)”. Also, the “Water fastness Grade” value in series [3] (Glossy Film (GF)) is 4; in series [3] (Plain Paper (PP)), 3-4; in series [3] (Special Paper A (SA)) it was 4; in series [3] (Special Paper B (SB)), 4.

With `Cn1c(=O)cc2c3c(c(Nc4cc(Nc5nc(Cl)nc(Nc6cc7c(S(=O)(=O)O)cc(S(=O)(=O)O)cc7cc6S(=O)(=O)O)n5)ccc4S(=O)(=O)O)ccc31)C(=O)c1ccccc1-2` [No.15], the solubility in water in series [1] was no less than 100 g/L. Further, the “Light fastness (ΔE)” value in series [2] (Glossy Film (GF)) was “(2.8)”; in series [2] (setting [4]), “(8.0)”; in series [2] (Special Paper A (SA)) it was “(21.3)”; in series [2] (Special Paper B (SB)), “(8.9)”. Moreover, the “Light fastness Grade” value in series [2] (Glossy Film (GF)) is 4; in series [2] (Plain Paper (PP)), 3-4; in series [2] (Special Paper A (SA)), 2; in series [2] (Special Paper B (SB)) it was 3-4. Moreover, the “Water fastness (ΔE)” value in series [3] (Glossy Film (GF)) is given as “(3.8)”; in series [3] (setting [4]) it was “(58.6)”; in series [3] (Special Paper A (SA)), “(1.3)”; in series [3] (Special Paper B (SB)), “(19.3)”. Moreover, the “Water fastness Grade” value in series [3] (Glossy Film (GF)) came out at 4; in series [3] (Plain Paper (PP)) it was 1; in series [3] (Special Paper A (SA)) it was 4; in series [3] (Special Paper B (SB)), 2.

Source of the values: patent US6645283B1, “Anthrapyridone compounds, water-based magenta ink composition, and method of ink-jet printing” (Nippon Kayaku Kabushiki Kaisha, priority 1998, dated 2003).
